The source of these data is patent publication US20230285411A1, “DRUG FORMULATION CONTAINING SEPETAPROST” (SANTEN PHARMACEUTICAL CO., LTD., priority 2020, published 2023).

Common to all, as to format: in vivo, cynomolgus monkey
Test [1] relates to monkeys with an inadequate response to latanoprost. Kind of test: Test for effect of latanoprost on lowering intraocular pressure in monkeys with inadequate response to latanoprost. As to conditions: for intraocular pressure change value: 20 μL/eye once. On the procedure:
Latanoprost eye drop was administered to the monkeys with an inadequate response to latanoprost, and its effect on lowering the intraocular pressure at 10 and 12 hours after the administration was evaluated.
(§1) (Eye Drop) • Latanoprost eye drop: Xalatan® Eye Drops 0.005% (w/v) (Pfizer Japan Inc.)
(§2) (Test Animals) • Cynomolgus monkeys: 7 animals (sex: male) selected in “1. Selection of monkeys with inadequate response to latanoprost”
(§3) <Methods for Administration and Measurement> • (1) An intraocular pressure was measured immediately before administering the test eye drop and was defined as the pre-administration intraocular pressure value (0 hour). • (2) The test eye drop was administered once (20 μL/eye) to one eye (right eye) of the test animals using a PIPETMAN. The contralateral eye was untreated. • (3) An intraocular pressure was measured at 10 and 12 hours after the administration. The intraocular pressure was measured three times for each to calculate its average value. An intraocular pressure change value (mmHg) was calculated as the difference from the pre-administration intraocular pressure value (0 hour) at each measurement time point.

For test [2], the system named is cynomolgus monkeys (monkeys with normal intraocular pressure), selected monkeys with an inadequate response to latanoprost. Kind of test: Selection of monkeys with inadequate response to latanoprost: intraocular pressure after single latanoprost eye drop. As to conditions: for intraocular pressure change value: 0.005% (w/v) eye drop, 20 μL/eye once, 7 selected monkeys. As to the method:
1. Selection of monkeys with inadequate response to latanoprost Latanoprost eye drop was administered to cynomolgus monkeys (monkeys with normal intraocular pressure) and each individual animal was examined for responsiveness to latanoprost to select monkeys with an inadequate response to latanoprost.
as §1
(Test Animals) • Cynomolgus monkeys: 32 animals (Sex/male)
as §3, with “2, 4,” for “10”, “6” for “12”
The test was conducted as a crossover study. A physiological saline solution was administered as a test eye drop to a control group. Two series of administering the latanoprost eye drop were conducted and designated as a latanoprost (first time) group and a latanoprost (second time) group, respectively.

For test [3], the system named is monkeys with an inadequate response to latanoprost. The test can be described thus: Test for effect of sepetaprost on lowering intraocular pressure in monkeys with inadequate response to latanoprost. As to conditions: for intraocular pressure lowering action: 10 and 12 hours after the administration, in words; for intraocular pressure lowering width / intraocular pressure change value: 0.002% (w/v) eye drop; for intraocular pressure change value: 20 μL/eye once. On the procedure:
Sepetaprost eye drop was administered to monkeys with an inadequate response to latanoprost, and its effect on lowering the intraocular pressure at 10 and 12 hours after the administration was evaluated.
(Eye Drop) • Sepetaprost eye drop: Sepetaprost was dissolved in a base, and then, a sepetaprost eye drop with a concentration of 0.002% (w/v) was prepared by using a commonly used method.
as §2
as §3, with “[…].” for “PIPETMAN.”
The test was conducted as a crossover study. The above-mentioned base was administered as a test eye drop to a control group. Two series of administering the sepetaprost eye drop were conducted and designated as a sepetaprost (first time) group and a sepetaprost (second time) group, respectively.

Setting [4] is: 12 hours after administration, 0.005% (w/v) eye drop.
Where [5] appears, read: first time group, 10 hours after administration.
Where [6] appears, read: first time group, 12 hours after administration.
Setting [7] is: second time group, 10 hours after administration.
Setting [8] is: second time group, 12 hours after administration.

Turning to `CC(C)OC(=O)CCC/C=C\C[C@@H]1[C@@H](CC[C@@H](O)CCc2ccccc2)[C@H](O)C[C@@H]1O` [Latanoprost, latanoprost], the “intraocular pressure change value” in test [1] (10 hours after administration, 0.005% (w/v) eye drop) is reported as −0.5 mmHg; in test [1] (setting [4]), −1.2 mmHg; in test [2] (first time group, 2 hours after administration) it was 1.0 mmHg; in test [2] (first time group, 4 hours after administration), −0.2 mmHg; in test [2] (first time group, 6 hours after administration), −0.6 mmHg; in test [2] (second time group, 2 hours after administration) it was 0.4 mmHg. In addition, the “intraocular pressure change value” is 0.0 mmHg in test [2] (second time group, 4 hours after administration) and −0.1 mmHg in test [2] (second time group, 6 hours after administration). The “intraocular pressure lowering width” value in test [1] (setting [4]) turned out to be 1.2 mmHg. In test [1] (up to 12 hours after the administration, in words), the “intraocular pressure lowering effect” value was “inadequate”. In test [2] (first time and second time groups, up to 6 hours after the administration, in words), the “change over time in the intraocular pressure” value is reported as “little change over time”.

For `CC(C)OC(=O)CCC[C@H]1CC[C@@H]2[C@@H](/C=C/[C@@H](O)COc3cc(F)ccc3F)[C@H](O)C[C@@H]2OC1` [Sepetaprost, 2-propanyl 4-{(3S,5aR,6R,7R,8aS)-6-[(1E,3R)-4-(2,5-difluorophenoxy)-3-hydroxy-1-buten-1-yl]-7-hydroxyoctahydro-2H-cyclopenta[b]oxepin-3-yl}butanoate], the “intraocular pressure lowering action” value in test [3] is “adequate”; in test [3] (listed as sepetaprost eye drop) it was “significant”. The “intraocular pressure lowering width” value in test [3] (setting [5]) worked out at 3.1 mmHg; in test [3] (setting [6]) it was 3.3 mmHg; in test [3] (setting [7]) it was 2.6 mmHg; in test [3] (setting [8]), 3.4 mmHg. Moreover, the “intraocular pressure change value” in test [3] (setting [5]) is listed as −3.1 mmHg; in test [3] (setting [6]), −3.3 mmHg; in test [3] (setting [7]), −2.6 mmHg; in test [3] (setting [8]) it was −3.4 mmHg.
